Experiments:
HCC78 = test: Cytotoxicity against human HCC78 cells measured after 8 days; assay type: functional, cell-based; conditions: HCC78, 192 h
HCC4006 = test: Cytotoxicity against human HCC4006 cells measured after 8 days; assay type: functional, cell-based; conditions: HCC4006, 192 h
SW-620 = test: Cytotoxicity against human SW620 cells measured after 8 days; assay type: functional, cell-based; conditions: SW-620, 192 h
DB = test: Cytotoxicity against human DB cells measured after 8 days; assay type: functional, cell-based; conditions: 192 h
U-937 = test: Cytotoxicity against human U-937 cells measured after 8 days; assay type: functional, cell-based; conditions: U-937, 192 h
[1] = Cytotoxicity against human WSU-FSCCL cells measured after 8 days; assay type: functional, cell-based; conditions: 192 h
[2] = target: Tyrosine-protein kinase JAK1 (Homo sapiens) (UniProt P23458); test: Inhibition of JAK1 (unknown origin) at 1 uM relative to control
Chain of Tyrosine-protein kinase JAK1 (Homo sapiens) (P23458 whole entry): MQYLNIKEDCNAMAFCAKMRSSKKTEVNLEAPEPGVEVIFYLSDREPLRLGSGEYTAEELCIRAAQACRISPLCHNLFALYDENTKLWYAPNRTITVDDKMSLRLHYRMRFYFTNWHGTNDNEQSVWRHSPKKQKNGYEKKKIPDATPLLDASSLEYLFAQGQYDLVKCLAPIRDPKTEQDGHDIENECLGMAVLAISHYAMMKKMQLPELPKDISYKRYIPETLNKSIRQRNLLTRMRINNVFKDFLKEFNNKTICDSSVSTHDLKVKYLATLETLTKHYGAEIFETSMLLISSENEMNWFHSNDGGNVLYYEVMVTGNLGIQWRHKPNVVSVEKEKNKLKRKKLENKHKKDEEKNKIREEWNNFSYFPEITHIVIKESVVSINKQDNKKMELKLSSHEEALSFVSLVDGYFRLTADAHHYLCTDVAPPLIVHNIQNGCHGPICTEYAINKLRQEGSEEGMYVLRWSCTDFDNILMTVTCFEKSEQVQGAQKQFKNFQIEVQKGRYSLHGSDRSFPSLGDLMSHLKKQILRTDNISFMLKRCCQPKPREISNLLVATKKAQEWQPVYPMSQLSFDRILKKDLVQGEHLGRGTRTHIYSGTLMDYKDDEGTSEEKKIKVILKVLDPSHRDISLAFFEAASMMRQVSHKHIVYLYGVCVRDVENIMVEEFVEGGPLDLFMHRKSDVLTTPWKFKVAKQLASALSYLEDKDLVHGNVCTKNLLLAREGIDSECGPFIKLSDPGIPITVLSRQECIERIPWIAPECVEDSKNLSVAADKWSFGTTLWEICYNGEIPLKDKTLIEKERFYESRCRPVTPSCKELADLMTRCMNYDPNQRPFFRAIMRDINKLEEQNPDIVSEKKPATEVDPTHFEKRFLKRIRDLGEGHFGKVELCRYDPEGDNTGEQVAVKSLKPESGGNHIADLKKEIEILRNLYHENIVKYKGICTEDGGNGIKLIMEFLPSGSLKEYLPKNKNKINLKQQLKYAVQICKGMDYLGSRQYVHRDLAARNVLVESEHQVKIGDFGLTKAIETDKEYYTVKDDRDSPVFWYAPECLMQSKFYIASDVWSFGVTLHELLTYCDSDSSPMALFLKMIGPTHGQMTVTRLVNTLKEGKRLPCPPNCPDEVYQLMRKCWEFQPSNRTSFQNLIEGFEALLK

NCI-H2122 = test: Cytotoxicity against human NCI-H2122 cells measured after 8 days; assay type: functional, cell-based; conditions: NCI-H2122, 192 h
[3] = target: Beta-1 adrenergic receptor (Homo sapiens) (UniProt P08588); test: Displacement of [3H](-)CGP 12177 from human beta1 adrenoceptor at 10 uM after 60 mins by scintillation counting analysis relative to control
Chain of Beta-1 adrenergic receptor (Homo sapiens) (P08588 whole entry, looked up): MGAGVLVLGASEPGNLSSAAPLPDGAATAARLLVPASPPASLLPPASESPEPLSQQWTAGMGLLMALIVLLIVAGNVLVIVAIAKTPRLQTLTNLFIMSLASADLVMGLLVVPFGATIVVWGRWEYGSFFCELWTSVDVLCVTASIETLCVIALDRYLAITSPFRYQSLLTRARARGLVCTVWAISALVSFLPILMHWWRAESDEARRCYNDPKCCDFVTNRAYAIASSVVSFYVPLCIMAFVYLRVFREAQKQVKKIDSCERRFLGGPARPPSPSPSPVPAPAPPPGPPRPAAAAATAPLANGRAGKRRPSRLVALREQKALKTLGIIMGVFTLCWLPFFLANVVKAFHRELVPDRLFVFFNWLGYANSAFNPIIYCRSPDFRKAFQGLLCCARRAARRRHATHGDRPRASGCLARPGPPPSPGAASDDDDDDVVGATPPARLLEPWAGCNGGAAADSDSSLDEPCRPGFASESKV

NCI-H1355 = test: Cytotoxicity against human NCI-H1355 cells measured after 8 days; assay type: functional, cell-based; conditions: NCI-H1355, 192 h
SKM-1 = test: Cytotoxicity against human SKM-1 cells measured after 8 days; assay type: functional, cell-based; conditions: SKM-1, 192 h
[4] = Cytotoxicity against human NCE-G 111 cells measured after 8 days; assay type: functional, cell-based; conditions: NCE-G 111, 192 h
Homo sapiens = species on record: Homo sapiens; test: Displacement of [3H]BRL 43694 from human recombinant 5-HT3 receptor at 10 uM after 120 mins by scintillation counting analysis relative to control
HCC44 = test: Cytotoxicity against human HCC44 cells measured after 8 days; assay type: functional, cell-based; conditions: HCC44, 192 h
GTL 16 cell line = test: Cytotoxicity against human GTL 16 cell line measured after 8 days; assay type: functional, cell-based; conditions: GTL 16, 192 h
[5] = target: T1, Myotonin-protein kinase (Homo sapiens) (UniProt Q09013); test: Inhibition of DMPK (unknown origin) at 1 uM relative to control
T1 sequence (whole entry): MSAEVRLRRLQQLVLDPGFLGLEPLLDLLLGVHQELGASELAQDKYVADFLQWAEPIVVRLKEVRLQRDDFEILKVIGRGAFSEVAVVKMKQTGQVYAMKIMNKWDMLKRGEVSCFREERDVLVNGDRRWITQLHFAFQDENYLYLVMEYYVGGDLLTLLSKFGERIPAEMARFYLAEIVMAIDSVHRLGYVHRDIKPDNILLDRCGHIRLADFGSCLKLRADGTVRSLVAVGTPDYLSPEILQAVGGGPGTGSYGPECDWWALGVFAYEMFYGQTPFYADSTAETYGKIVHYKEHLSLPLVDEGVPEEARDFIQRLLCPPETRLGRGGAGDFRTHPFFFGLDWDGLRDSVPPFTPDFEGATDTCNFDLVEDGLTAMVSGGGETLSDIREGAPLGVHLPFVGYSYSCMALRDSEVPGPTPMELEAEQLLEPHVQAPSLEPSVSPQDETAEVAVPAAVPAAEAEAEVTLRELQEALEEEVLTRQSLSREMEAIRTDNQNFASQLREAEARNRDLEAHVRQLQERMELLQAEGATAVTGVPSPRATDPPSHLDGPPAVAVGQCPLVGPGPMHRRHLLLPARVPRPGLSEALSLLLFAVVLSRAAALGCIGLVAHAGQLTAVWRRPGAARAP

NCI-H650 = test: Cytotoxicity against human NCI-H650 cells measured after 8 days; assay type: functional, cell-based; conditions: NCI-H650, 192 h
ChaGo-K-1 = test: Cytotoxicity against human ChaGo-K-1 cells measured after 8 days; assay type: functional, cell-based; conditions: ChaGo-K-1, 192 h
Calu-3 = test: Cytotoxicity against human Calu-3 cells measured after 8 days; assay type: functional, cell-based; conditions: Calu-3, 192 h
NCI-H2228 = test: Cytotoxicity against human NCI-H2228 cells measured after 8 days; assay type: functional, cell-based; conditions: NCI-H2228, 192 h
HCC1954 = test: Cytotoxicity against human HCC1954 cells measured after 8 days; assay type: functional, cell-based; conditions: HCC1954, 192 h
LXF-289 cell line = test: Cytotoxicity against human LXF-289 cell line measured after 8 days; assay type: functional, cell-based; conditions: LXF-289, 192 h
[6] = target: T2, Muscarinic acetylcholine receptor M1 (Homo sapiens) (UniProt P11229); test: Displacement of [125I]pirenzepine from human recombinant M1 receptor at 10 uM after 60 mins by scintillation counting analysis relative to control
T2 sequence (whole entry): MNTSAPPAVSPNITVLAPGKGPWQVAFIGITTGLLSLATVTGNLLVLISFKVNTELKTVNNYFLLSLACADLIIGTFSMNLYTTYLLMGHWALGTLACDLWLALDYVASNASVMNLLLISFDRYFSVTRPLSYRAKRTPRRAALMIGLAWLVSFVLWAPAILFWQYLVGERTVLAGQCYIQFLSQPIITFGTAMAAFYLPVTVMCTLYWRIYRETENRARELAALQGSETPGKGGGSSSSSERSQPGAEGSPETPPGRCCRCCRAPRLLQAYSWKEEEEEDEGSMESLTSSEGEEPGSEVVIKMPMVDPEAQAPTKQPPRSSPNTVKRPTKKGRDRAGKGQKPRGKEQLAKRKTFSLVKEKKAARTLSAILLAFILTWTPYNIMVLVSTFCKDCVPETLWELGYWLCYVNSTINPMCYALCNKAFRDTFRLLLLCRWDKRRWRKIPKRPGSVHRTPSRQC

IGR-37 cell line = test: Cytotoxicity against human IGR-37 cell line measured after 8 days; assay type: functional, cell-based; conditions: IGR-37, 192 h
RL = test: Cytotoxicity against human RL cells measured after 8 days; assay type: functional, cell-based; conditions: 192 h
MV4-11 = test: Cytotoxicity against human MV4-11 cells measured after 8 days; assay type: functional, cell-based; conditions: MV4-11, 192 h
[7] = Cytotoxicity against human KMS-27 cells measured after 8 days; assay type: functional, cell-based; conditions: KMS-27, 192 h
[8] = target: Histamine H2 receptor (Homo sapiens) (UniProt P25021); test: Displacement of [125I]APT from human recombinant histamine H2 receptor at 10 uM after 120 mins by scintillation counting analysis relative to control
Chain of Histamine H2 receptor (Homo sapiens) (P25021 whole entry): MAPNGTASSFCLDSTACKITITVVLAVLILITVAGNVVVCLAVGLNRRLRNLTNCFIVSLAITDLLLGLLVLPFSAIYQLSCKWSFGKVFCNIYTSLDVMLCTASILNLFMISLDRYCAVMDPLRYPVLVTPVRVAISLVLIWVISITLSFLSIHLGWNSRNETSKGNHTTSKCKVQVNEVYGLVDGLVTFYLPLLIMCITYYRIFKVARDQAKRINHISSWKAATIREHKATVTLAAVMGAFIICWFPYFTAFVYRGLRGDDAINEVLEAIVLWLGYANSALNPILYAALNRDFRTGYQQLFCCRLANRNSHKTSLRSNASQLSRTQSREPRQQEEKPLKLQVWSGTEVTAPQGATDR

SK-MEL-28 = test: Cytotoxicity against human SK-MEL-28 cells measured after 8 days; assay type: functional, cell-based; conditions: SK-MEL-28, 192 h
MEL-HO = test: Cytotoxicity against human MEL-HO cells measured after 8 days; assay type: functional, cell-based; conditions: 192 h
Hs-578T = test: Cytotoxicity against human Hs-578T cells measured after 8 days; assay type: functional, cell-based; conditions: 192 h
[9] = target: Bromodomain testis-specific protein (Homo sapiens, UniProt Q58F21); test: Binding affinity to human partial length BRDT bromodomain 2 (K250 to E382 residues) expressed in bacterial expression system by BROMOscan assay
JeKo-1 = test: Cytotoxicity against human JeKo-1 cells measured after 8 days; assay type: functional, cell-based; conditions: JeKo-1, 192 h
[10] = Cytotoxicity against human HCC461 cells measured after 8 days; assay type: functional, cell-based; conditions: HCC461, 192 h
LNCaP = test: Cytotoxicity against human LNCaP/Ner cells measured after 8 days; assay type: functional, cell-based; conditions: 192 h

| Compound | IC50 (HCC78) | IC50 (HCC4006) | IC50 (SW-620) | IC50 (DB) | IC50 (U-937) | IC50 [1] | inhibition [2] | IC50 (NCI-H2122) | Activity [3] | IC50 (NCI-H1355) | IC50 (SKM-1) | IC50 [4] | Activity (Homo sapiens) | IC50 (HCC44) | IC50 (GTL 16 cell line) | inhibition [5] | IC50 (NCI-H650) | IC50 (ChaGo-K-1) | IC50 (Calu-3) | Kd [9] | also measured |
| --- | --- | --- | --- | --- | --- | --- | --- | --- | --- | --- | --- | --- | --- | --- | --- | --- | --- | --- | --- | --- | --- |
| C/C=C/Cn1cc(-c2ccc(C(=O)N3CCOCC3)cc2)c2cc[nH]c2c1=O | 20 µM | 20 µM | 20 µM | 20 µM | 20 µM | 20 µM | -3.9% | 20 µM | 4% | 20 µM | 13.9 µM | 20 µM | -5% | 20 µM | 20 µM | -2% | 20 µM | 20 µM | 20 µM | 3.5 µM | IC50 (NCI-H2228): 20 µM; IC50 (HCC1954): 20 µM; IC50 (LXF-289 cell line): 20 µM; Activity [6]: -8%; IC50 (IGR-37 cell line): 20 µM; IC50 (RL): 16.6 µM; IC50 (MV4-11): 6.86 µM; IC50 [7]: 20 µM; Activity [8]: 6%; IC50 (SK-MEL-28): 20 µM; IC50 (MEL-HO): 20 µM; IC50 (Hs-578T): 20 µM; IC50 (JeKo-1): 9.95 µM; IC50 [10]: 20 µM; IC50 (LNCaP): 16.7 µM |
| C/C=C/Cn1cc(-c2cc(OC)c(C(C)(C)O)cc2OC)c2cc(C)[nH]c2c1=O | – | – | – | – | – | – | – | – | – | – | – | – | – | – | – | – | – | – | – | 6.6 µM | – |
| C/C=C/Cn1cc(-c2cc(OC)c(C(=O)N3CCOCC3)cc2OC)c2cc(C)[nH]c2c1=O | 2 µM | 2 µM | 2 µM | 2 µM | 2 µM | 0.81 µM | -4.5% | 2 µM | 12% | 2 µM | 2 µM | 2 µM | -5% | 2 µM | 2 µM | -4% | 2 µM | 2 µM | 2 µM | > 10 µM | IC50 (NCI-H2228): 2 µM; IC50 (HCC1954): 2 µM; IC50 (LXF-289 cell line): 2 µM; Activity [6]: -1%; IC50 (IGR-37 cell line): 2 µM; IC50 (RL): 2 µM; IC50 (MV4-11): 2 µM; IC50 [7]: 2 µM; Activity [8]: -5%; IC50 (SK-MEL-28): 2 µM; IC50 (MEL-HO): 2 µM; IC50 (Hs-578T): 2 µM; IC50 (JeKo-1): 2 µM; IC50 [10]: 2 µM; IC50 (LNCaP): 2 µM |
| C/C=C/Cn1cc(-c2ccc(C(C)(C)O)cc2OC)c2cc[nH]c2c1=O | 20 µM | 20 µM | 20 µM | 16.9 µM | 20 µM | 13.5 µM | -2.5% | 20 µM | 11% | 20 µM | 20 µM | 20 µM | -6% | 20 µM | 20 µM | 2.5% | 20 µM | 20 µM | 20 µM | 2.6 µM | IC50 (NCI-H2228): 20 µM; IC50 (HCC1954): 20 µM; IC50 (LXF-289 cell line): 20 µM; Activity [6]: 1%; IC50 (IGR-37 cell line): 20 µM; IC50 (RL): 14.8 µM; IC50 (MV4-11): 8.02 µM; IC50 [7]: 20 µM; Activity [8]: 1%; IC50 (SK-MEL-28): 20 µM; IC50 (MEL-HO): 16.5 µM; IC50 (Hs-578T): 20 µM; IC50 (JeKo-1): 10.8 µM; IC50 [10]: 20 µM; IC50 (LNCaP): 17.8 µM |
